{"source": "patent US6328986A", "about": "“Method of deterring birds from plant and structural surfaces” (priority 2000, dated 2001)", "key": {"birds [1]": {"test_system": "birds", "assay": "Avian perching deterrent test, all 3 test species (Example 7)", "assay_type": "in vivo, red-winged blackbirds, brown-headed cowbirds, fish crows", "excerpt": "(§1) Two (2) pens (10×20×6 feet) constructed of wood and aviary wire in a roofed outdoor aviary with a concrete floor were erected. At one end of each pen a water bowl and a food bowl containing the birds' maintenance diet was provided. On the morning of day 1, the test birds were transferred from their holding cages to each of the test pens. In each pen, there was one centrally located perch. At 0800 on the morning of day 2, this perch was removed and 2 test perches were installed, one in each of the corners at the end of the pen away from the food and water. For red-winged blackbirds (Agelaius phoeniceus) and brown-headed cowbirds (Molothrus ater), the perches were made of aluminum rod, 1.2 m long and 1.0 cm in diameter. For fish crows (Corvus ossigragus), the test perches were hollow stainless steel pipe, 1.2-m long and 2.25 cm in diameter. One of the test perches (randomly determined) was coated with a product containing 50% AQ as the active ingredient (the \"repellent\"), and the other was uncoated. The repellent was applied to the perches with a paint brush 24-48 hours before the test. The repellent was easily applied and appeared somewhat like thinned paint. It covered the metal surfaces very well, with some streaking, and formed an opaque coating that was dry to the touch by the start of the trial. Approximately 7.5 g wet weight was applied to each crow perch and approximately 3.5 g to each blackbird/cowbird perch.\nTest perches remained in the pens until 1500 on day 3 at which time the birds were captured, banded and released. The activity was videotaped in each pen during 3 30-min periods daily: 0800-0830, 1100-1130, and 1400-1430. The videotapes were reviewed to determine bird use of the perches. The number of birds on each of the test perches were recorded at 1-min intervals. Activity and locations of birds not on the perches was also noted. Five (5) groups of blackbirds and cowbirds and 4 groups of fish crows were tested. For blackbirds and cowbirds, there were 4 birds in each test group. For fish crows, we used 2 birds per pen.\nTo analyze responses of the birds to the perch treatment, the mean number of birds on each perch during each of the 6 30-min observation periods was used. The data are expressed as birds/min. A separate 2-way repeated measures analysis of variance for each of the 3 bird species was performed to test the null hypothesis of equal use between the two perches."}, "crows": {"test_system": "crows", "assay": "Deterrence of crows from flat roof (Example 4)", "assay_type": "in vivo", "conditions": "50% by weight aqueous dispersion of 9,10-anthraquinone", "excerpt": "(§2) In the following examples, the treating material was an aqueous dispersion of small particles of 9,10-anthraquinone containing 50% by weight of the anthraquinone and a small amount of surfactant.\nIn Philadelphia Pa., a large number of crows, estimated at over two hundred thousand, regularly roosted on the flat roof of an industrial building."}, "[2]": {"assay": "LD50 in northern bobwhite quail", "conditions": "in vivo, separate study"}, "fish crows": {"test_system": "fish crows", "assay": "Avian perching deterrent test, fish crows (Example 7)", "assay_type": "in vivo, Corvus ossigragus", "excerpt": "as §1\n(§3) Test perches remained in the pens until 1500 on day 3 at which time the birds were captured, banded and released. The activity was videotaped in each pen during 3 30-min periods daily: 0800-0830, 1100-1130, and 1400-1430. The videotapes were reviewed to determine bird use of the perches. The number of birds on each of the test perches were recorded at 1-min intervals. Activity and locations of birds not on the perches was also noted. […]\n(§4) To analyze responses of the birds to the perch treatment, the mean number of birds on each perch during each of the 6 30-min observation periods was used. The data are expressed as birds/min. […]"}, "pigeons [3]": {"test_system": "pigeons", "assay": "Deterrence of pigeons from metal beam of sports arena (Example 6)", "assay_type": "in vivo", "conditions": "four ounces of 50% dispersion in 29 gallons of water", "excerpt": "as §2\nFour ounces of a 50% by weight dispersion of anthraquinone in water were mixed with 29 gallons of water. The mixture was sprayed on a twenty foot section of a metal beam in the superstructure of a large sports arena. The treated beam section was open to the atmosphere and had become a roost for pigeons. Prior to the treatment, a section of walkway beneath the beam was cleaned weekly of 50-60 bird droppings. After more than 30 days following treatment of the beam with the above-described dilute anthraquinone dispersion, the pigeons had not returned to the roosting site."}, "geese [4]": {"test_system": "geese", "assay": "Deterrence of geese from loafing/roosting on grassy turf (Example 1)", "assay_type": "in vivo", "protocol": "A formulation containing 50% wt., basis total formulation, of 9,10-anthraquinone dispersed in water with a small amount of surfactant and thickener was prepared and sprayed onto untreated grassy turf in an area where geese normally loaf or roost. One-third acre of turf was treated with areas of untreated turf bordering on both sides of the treated area. The dispersed anthraquinone particles were applied at a rate of 1 pint/acre (approximately 50 mg/m^2) on the treated area. […] The differences in the effects of the treated area versus the untreated area were easily noted. […] The geese were repelled from the treated area for approximately two weeks until the turf was cut. After cutting, another treatment was applied. The dispersed anthraquinone particles were applied at a rate of 1/2 pint/acre (approximately 25 mg/m^2) in the same manner of treating one strip of turf bordered by untreated turf. […] The test was continued for approximately two weeks. The test was concluded due to snow."}, "brown-headed cowbirds": {"test_system": "brown-headed cowbirds", "assay": "Avian perching deterrent test, brown-headed cowbirds (Example 7)", "assay_type": "in vivo, Molothrus ater", "excerpt": "as §1, with “The repellent was applied to the perches with a paint brush 24-48 hours before the test. The repellent was easily applied and appeared somewhat like thinned paint. It covered the metal surfaces very well, with some streaking, and formed an opaque coating that was dry to the touch by the start of the trial. Approximately 7.5 g wet weight was applied to each crow perch and approximately 3.5 g to each blackbird/cowbird perch.” left out\nTest perches remained in the pens until 1500 on day 3 at which time the birds were captured, banded and released. […] The number of birds on each of the test perches were recorded at 1-min intervals. […]\nas §4"}, "geese [5]": {"test_system": "geese", "assay": "Deterrence of geese from 6.2 acre grassy test site (Example 2)", "assay_type": "in vivo", "protocol": "A grassy test site having an area of 6.2 acres was selected within the grounds of a large campus style research complex having a substantial flock of geese in residence, which numbers 250-300 geese during the day and as many as 500 geese in the evening hours. In order to determine when daily observations should be made, the site was observed beforehand to determine the times during which the maximum number of geese were on the test site. Observations were conducted at the same time(s) each day in such manner that the behavior of the geese could be observed without disturbance. In addition, the number of droppings in selected areas of the site were counted each day, recorded and then removed from the test area by raking.\nFollowing 10 days observation of the untreated test site, the above-described goose repellent composition was sprayed on the test area using a calibrated spray tank and a fan-shaped head sprayer. The liquid spray contained one gallon of repellent per 140 gallons of water and the rate of application was 2.77 pounds of AQ per acre of the mixture. In the absence of rain, the applied composition fully dried on the blades of grass within 24 hours."}, "red-winged blackbirds": {"test_system": "red-winged blackbirds", "assay": "Avian perching deterrent test, red-winged blackbirds (Example 7)", "assay_type": "in vivo, Agelaius phoeniceus", "excerpt": "as §1, §3, §4"}, "birds [6]": {"test_system": "birds", "assay": "Pen and field observations of bird behavior and adverse effects", "assay_type": "in vivo", "excerpt": "Pen and field observations of bird behavior were made throughout the studies. In no situation were adverse effects or discomfort to the observed birds. In feeding on rice seeds, the birds squeezed the grain from the hull then ejected the hull from their mouths and ate only the inner grain."}, "pigeons [7]": {"test_system": "pigeons", "assay": "Deterrence of pigeons from steel beams of aircraft hangar (Example 5)", "assay_type": "in vivo", "conditions": "50% by weight aqueous dispersion of 9,10-anthraquinone", "excerpt": "as §2\nPigeons regularly roosted on the exposed steel beams within a large aircraft hangar in Wilmington Del."}, "seagulls": {"test_system": "seagulls", "assay": "Deterrence of seagulls from flat roof (Example 3)", "assay_type": "in vivo", "conditions": "50% by weight aqueous dispersion of 9,10-anthraquinone", "excerpt": "as §2\nA large number of seagulls regularly roosted on the flat roof of an industrial building in Northern California."}, "[8]": {"conditions": "treated on day 10, following a heavy rain"}}}
{"smiles": "O=C1c2ccccc2C(=O)c2ccccc21", "note": "[9,10-anthraquinone]", "values": [{"measurement": "preference of test species", "setting": "birds [1]; 2-day trials, perch coated with repellent vs untreated", "value": "each of the 3 test species displayed a preference for the untreated perch over the one coated with repellent"}, {"measurement": "signs of illness on videotapes", "setting": "birds [1]; e.g. decreased activity, fluffed feathers, vomiting", "value": "no sign of illness was observed"}, {"measurement": "discomfort on the treated perch", "setting": "birds [1]; in vivo", "value": "no indication that they were uncomfortable or bothered by the feel of the perch was observed"}, {"measurement": "initial reluctance to use the treated perches", "setting": "birds [1]; in vivo", "value": "No initial reluctance by birds to use the treated perches was observed"}, {"measurement": "return of crows", "setting": "crows", "value": "the crows did not return"}, {"measurement": "LD50", "setting": "[2]", "value": "> 2000", "unit": "mg/kg"}, {"measurement": "use of the treated perch", "setting": "fish crows; 50% AQ coating, SE=0.08, untreated perch 1.28 (SE=0.08), P=0.014", "value": 0.64, "unit": "birds/min"}, {"measurement": "use of the untreated perch relative to treated perch", "setting": "fish crows; P=0.014", "value": "approximately twice"}, {"measurement": "use of treated perch from day 1 to day 2", "setting": "fish crows; day x perch interaction P=0.090", "value": "decreased use of the treated perch from day 1 to day 2"}, {"measurement": "time following treatment during which pigeons had not returned to the roosting site", "setting": "pigeons [3]", "value": "more than 30 days"}, {"measurement": "repellency", "setting": "geese [4]; 1/2 pint/acre (approximately 25 mg/m^2), after cutting, about two weeks", "value": "The same repellency was exhibited"}, {"measurement": "behavior of geese that entered the treated area", "setting": "geese [4]; 1 pint/acre (approximately 50 mg/m^2)", "value": "immediately ceased eating, exited the treated area, entered a nearby pond and began to wash or rinse themselves"}, {"measurement": "use of the treated perch", "setting": "brown-headed cowbirds; 50% AQ coating, SE=0.14, untreated perch 1.70 (SE=0.23), P=0.015", "value": 0.62, "unit": "birds/min"}, {"measurement": "bird use of each perch on the second day", "setting": "brown-headed cowbirds; day x perch interaction P=0.222", "value": "bird use of each perch declined on the second day"}, {"measurement": "goose count, second day after application", "setting": "geese [5]; 2.77 pounds of AQ per acre, before treatment average about 150 geese", "value": "zero"}, {"measurement": "goose count, day after application", "setting": "geese [5]; 2.77 pounds of AQ per acre, before treatment average about 150 geese (45 to 305)", "value": "about 110 geese"}, {"measurement": "period for which number of geese remained quite low in treated area vs surrounding untreated areas", "setting": "geese [5]; following the treatment", "value": "more than 3 months"}, {"measurement": "birds' behavior after treatment of the test area", "setting": "geese [5]; in vivo", "value": "large numbers of birds were observed milling around, but not entering the treated area"}, {"measurement": "number of geese, days 12-23", "setting": "geese [5]; treated on day 10", "value": "only a few geese were observed from time-to-time"}, {"measurement": "number of geese, day 11", "setting": "geese [5]; treated on day 10 (over 300 geese), 2.77 pounds of AQ per acre", "value": 109, "unit": "geese"}, {"measurement": "number of geese, day 12", "setting": "geese [5]; treated on day 10, 2.77 pounds of AQ per acre", "value": "zero"}, {"measurement": "goose count, day 23", "setting": "geese [5]; [8]", "value": 27, "unit": "geese"}, {"measurement": "number of droppings, day 23", "setting": "geese [5]; [8]", "value": 13, "unit": "droppings"}, {"measurement": "number of geese, day 18", "setting": "geese [5]; treated on day 10, very low quantity of droppings", "value": 18, "unit": "geese"}, {"measurement": "use of the treated perch", "setting": "red-winged blackbirds; 50% AQ coating, SE=0.06, untreated perch 0.86 (SE=0.10), P=0.067", "value": 0.41, "unit": "birds/min"}, {"measurement": "use of the untreated perch relative to treated perch", "setting": "red-winged blackbirds; P=0.067", "value": "more than twice"}, {"measurement": "use of treated perch from day 1 to day 2", "setting": "red-winged blackbirds; day x perch interaction P<0.001", "value": "decrease use of the treated perch from day 1 to day 2"}, {"measurement": "irritation of birds exposed on food", "setting": "birds [6]; exposed to anthraquinone on food", "value": "no sign of irritation"}, {"measurement": "effect of treated seeds on birds' behavior or pain", "setting": "birds [6]; feeding on treated rice seeds", "value": "did not affect the birds' behavior or induce pain"}, {"measurement": "effect of consumption on feeding behavior", "setting": "birds [6]; grams of feed per day", "value": "did not affect feeding behavior"}, {"measurement": "death of test birds", "setting": "birds [6]; upon completion of all studies", "value": "No test birds died"}, {"measurement": "return of pigeons", "setting": "pigeons [7]", "value": "the pigeons did not return"}, {"measurement": "use of treated roof by gulls", "setting": "seagulls", "value": "the gulls did not further use the surface for roosting"}]}
